Here are results for three compounds from US9975907B2, “Pyrimidinones as PI3K inhibitors” (Incyte Corporation, priority 2009, dated 2018).

By IC50 is commonly meant the concentration needed to halve the response being measured. Read a low IC50 as greater potency.

Common to all, as to assay type: biochemical
Test [1] deals with T1, PI3Kδ (p110δ/p85α) (Homo sapiens (Human), UniProt O00329). As to the kind of experiment: AlphaScreen Assay for PI3Kδ (Assay A1). To be noted: column a, 20 μM ATP. The source says:
PI3-Kinase luminescent assay kit including lipid kinase substrate, D-myo-phosphatidylinositol 4,5-bisphosphate (PtdIns(4,5)P2)D (+)-sn-1,2-di-O-octanoylglyceryl, 3-O-phospho linked (PIP2), biotinylated I(1,3,4,5)P4, PI(3,4,5)P3 Detector Protein, was purchased from Echelon Biosciences (Salt Lake City, Utah). AlphaScreen™ GST Detection Kit including donor and acceptor beads was purchased from PerkinElmer Life Sciences (Waltham, Mass.). PI3Kδ (p110δ/p85α) was purchased from Millipore (Bedford, Mass.). ATP, MgCb, DTT, EDTA, HEPES and CHAPS were purchased from Sigma-Aldrich (St. Louis, Mo.).
AlphaScreen™ Assay for PI3Kδ
The kinase reaction was conducted in 384-well REMP plate from Thermo Fisher Scientific in a final volume of 40 μL. Inhibitors were first diluted serially in DMSO and added to the plate wells before the addition of other reaction components. The final concentration of DMSO in the assay was 2%. The PI3K assays were carried out at room temperature in 50 mM HEPES, pH 7.4, 5 mM MgCl2, 50 mM NaCl, 5 mM DTT and CHAPS 0.04%. Reactions were initiated by the addition of ATP, the final reaction mixture consisted of 20 μM PIP2, 20 μM ATP, 1.2 nM PI3Kδ were incubated for 20 min. 10 μL of reaction mixture was then transferred to 5 μL 50 nM biotinylated I(1,3,4,5)P4 in quench buffer: 50 mM HEPES pH 7.4, 150 mM NaCl, 10 mM EDTA, 5 mM DTT, 0.1% Tween-20, followed with the addition of 10 μL AlphaScreen™ donor and acceptor beads suspended in quench buffer containing 25 nM PI(3,4,5)P3 detector protein. The final concentration of both donor and acceptor beads is […]. After plate sealing, the plate was incubated in a dark location at room temperature for 2 hours. The activity of the product was determined on Fusion-alpha microplate reader (Perkin-Elmer). IC50 determination was performed by fitting the curve of percent control activity versus the log of the inhibitor concentration using the GraphPad Prism 3.0 software.

The target in a further test is PI3Kγ (Homo sapiens (Human), UniProt P48736). As to the kind of experiment: PI3K Enzyme Assay A2 ([γ-33P]ATP filter plate), PI3Kγ. The conditions noted are these: Assay A2, 1000 μM ATP. On the procedure:
Materials: Lipid kinase substrate, phosphoinositol-4,5-bisphosphate (PIP2), was purchased from Echelon Biosciences (Salt Lake City, Utah). PI3K isoforms α, β, δ and γ were purchased from Millipore (Bedford, Mass.). ATP, MgCh, DTT, EDTA, MOPS and CHAPS were purchased from Sigma-Aldrich (St. Louis, Mo.).
The kinase reaction was conducted in clear-bottom 96-well plate from Thermo Fisher Scientific in a final volume of 24 μL. Inhibitors were first diluted serially in DMSO and added to the plate wells before the addition of other reaction components. The final concentration of DMSO in the assay was 0.5%. The PI3K assays were carried out at room temperature in 20 mM MOPS, pH 6.7, 10 mM MgCl2, 5 mM DTT and CHAPS 0.03%. The reaction mixture was prepared containing 50 μM PIP2, kinase and varying concentration of inhibitors. Reactions were initiated by the addition of ATP containing 2.2 μCi [γ-^33P]ATP to a final concentration of 1000 μM. The final concentration of PI3K isoforms α, β, δ and γ in the assay were 1.3, 9.4, 2.9 and 10.8 nM respectively. Reactions were incubated for 180 min and terminated by the addition of 100 μL of 1 M potassium phosphate pH 8.0, 30 mM EDTA quench buffer. A 100 μL aliquot of the reaction solution was then transferred to 96-well Millipore MultiScreen IP 0.45 μm PVDF filter plate (The filter plate was prewetted with 200 μL 100% ethanol, distilled water, and 1 M potassium phosphate pH 8.0, respectively). The filter plate was aspirated on a Millipore Manifold under vacuum and washed with 18×200 μL wash buffer containing 1 M potassium phosphate pH 8.0 and 1 mM ATP. After drying by aspiration and blotting, the plate was air dried in an incubator at 37° C. overnight. Packard TopCount adapter (Millipore) was then attached to the plate followed with addition of 120 μL Microscint 20 scintillation cocktail (Perkin Elmer) in each well. After the plate sealing, the radioactivity of the product was determined by scintillation counting on Topcount (Perkin-Elmer). IC50 determination was performed by fitting the curve of percent control activity versus the log of the inhibitor concentration using the GraphPad Prism 3.0 software. […] See Table 1 for data related to compounds of the invention.

Test [2] deals with T1, PI3Kδ (p110δ/p85α). As to the kind of experiment: PI3Kδ Scintillation Proximity Assay (Assay A3). The conditions noted are these: column b, Assay A3 (SPA), 20 μM ATP. In short, it runs like this: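 Radiometric SPA: 33P-labelled […] bound to WGA beads after EDTA/ATP quench, counted by scintillation, fitted against log inhibitor for IC50. Reaction: 4 nM PI3Kδ (p110δ/p85α), 20 μM ATP, 20 μM PIP2, pH 6.7 MOPS buffer with MgCl2, DTT, CHAPS, 0.5% DMSO, room temperature, 210 min.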
On the technique in general: SPA uses beads or plates that emit light when radiolabelled molecules are held near them.

Some results are limits rather than exact numbers.

T1 sequence (O00329 whole entry, species assumed): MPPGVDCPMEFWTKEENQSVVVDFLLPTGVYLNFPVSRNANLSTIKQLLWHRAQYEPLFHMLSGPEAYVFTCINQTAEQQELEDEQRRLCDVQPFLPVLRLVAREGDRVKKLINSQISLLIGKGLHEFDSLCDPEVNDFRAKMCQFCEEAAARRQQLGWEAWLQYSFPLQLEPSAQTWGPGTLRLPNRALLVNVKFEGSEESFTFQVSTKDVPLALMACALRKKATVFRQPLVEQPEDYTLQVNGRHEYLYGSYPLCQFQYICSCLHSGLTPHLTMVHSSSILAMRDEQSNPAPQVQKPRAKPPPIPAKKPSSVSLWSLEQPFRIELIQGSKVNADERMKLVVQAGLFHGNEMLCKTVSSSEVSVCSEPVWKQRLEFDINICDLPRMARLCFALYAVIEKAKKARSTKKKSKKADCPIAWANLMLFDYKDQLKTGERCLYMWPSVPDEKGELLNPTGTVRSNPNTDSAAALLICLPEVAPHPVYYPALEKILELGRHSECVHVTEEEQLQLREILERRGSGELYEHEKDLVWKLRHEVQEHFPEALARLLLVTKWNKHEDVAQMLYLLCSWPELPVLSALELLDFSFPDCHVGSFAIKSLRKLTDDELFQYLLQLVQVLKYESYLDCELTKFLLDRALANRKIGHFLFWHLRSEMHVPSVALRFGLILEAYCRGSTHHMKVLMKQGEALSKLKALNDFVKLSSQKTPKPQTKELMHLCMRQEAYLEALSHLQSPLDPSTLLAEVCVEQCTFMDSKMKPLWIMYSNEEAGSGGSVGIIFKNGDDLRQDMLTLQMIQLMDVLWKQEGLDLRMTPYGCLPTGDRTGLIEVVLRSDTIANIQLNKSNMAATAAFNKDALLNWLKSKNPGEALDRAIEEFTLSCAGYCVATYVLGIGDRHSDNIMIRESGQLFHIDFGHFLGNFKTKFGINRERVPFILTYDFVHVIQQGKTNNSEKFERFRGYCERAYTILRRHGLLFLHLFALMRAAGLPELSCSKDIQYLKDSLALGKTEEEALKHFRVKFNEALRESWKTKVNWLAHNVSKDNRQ
T1 sequence (P27986 whole entry partner, species assumed): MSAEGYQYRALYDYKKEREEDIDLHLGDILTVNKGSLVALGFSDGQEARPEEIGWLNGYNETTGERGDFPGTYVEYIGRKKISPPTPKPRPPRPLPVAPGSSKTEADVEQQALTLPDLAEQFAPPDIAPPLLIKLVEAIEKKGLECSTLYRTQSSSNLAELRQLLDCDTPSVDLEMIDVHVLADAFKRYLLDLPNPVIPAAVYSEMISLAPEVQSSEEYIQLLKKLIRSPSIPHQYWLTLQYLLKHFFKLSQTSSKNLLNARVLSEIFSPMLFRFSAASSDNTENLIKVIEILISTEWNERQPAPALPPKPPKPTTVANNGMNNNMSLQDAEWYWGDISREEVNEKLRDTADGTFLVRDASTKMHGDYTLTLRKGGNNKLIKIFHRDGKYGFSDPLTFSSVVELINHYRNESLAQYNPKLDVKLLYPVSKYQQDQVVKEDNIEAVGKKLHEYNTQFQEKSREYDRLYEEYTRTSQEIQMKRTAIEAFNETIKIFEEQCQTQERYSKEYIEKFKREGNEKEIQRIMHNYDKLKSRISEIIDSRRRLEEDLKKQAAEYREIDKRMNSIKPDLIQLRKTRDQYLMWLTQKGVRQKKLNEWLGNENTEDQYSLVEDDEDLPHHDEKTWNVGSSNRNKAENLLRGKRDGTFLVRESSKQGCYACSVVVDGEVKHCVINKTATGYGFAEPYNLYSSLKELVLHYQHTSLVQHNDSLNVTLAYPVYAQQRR
Sequence of PI3Kγ (P48736 whole entry, species assumed, canonical isoform): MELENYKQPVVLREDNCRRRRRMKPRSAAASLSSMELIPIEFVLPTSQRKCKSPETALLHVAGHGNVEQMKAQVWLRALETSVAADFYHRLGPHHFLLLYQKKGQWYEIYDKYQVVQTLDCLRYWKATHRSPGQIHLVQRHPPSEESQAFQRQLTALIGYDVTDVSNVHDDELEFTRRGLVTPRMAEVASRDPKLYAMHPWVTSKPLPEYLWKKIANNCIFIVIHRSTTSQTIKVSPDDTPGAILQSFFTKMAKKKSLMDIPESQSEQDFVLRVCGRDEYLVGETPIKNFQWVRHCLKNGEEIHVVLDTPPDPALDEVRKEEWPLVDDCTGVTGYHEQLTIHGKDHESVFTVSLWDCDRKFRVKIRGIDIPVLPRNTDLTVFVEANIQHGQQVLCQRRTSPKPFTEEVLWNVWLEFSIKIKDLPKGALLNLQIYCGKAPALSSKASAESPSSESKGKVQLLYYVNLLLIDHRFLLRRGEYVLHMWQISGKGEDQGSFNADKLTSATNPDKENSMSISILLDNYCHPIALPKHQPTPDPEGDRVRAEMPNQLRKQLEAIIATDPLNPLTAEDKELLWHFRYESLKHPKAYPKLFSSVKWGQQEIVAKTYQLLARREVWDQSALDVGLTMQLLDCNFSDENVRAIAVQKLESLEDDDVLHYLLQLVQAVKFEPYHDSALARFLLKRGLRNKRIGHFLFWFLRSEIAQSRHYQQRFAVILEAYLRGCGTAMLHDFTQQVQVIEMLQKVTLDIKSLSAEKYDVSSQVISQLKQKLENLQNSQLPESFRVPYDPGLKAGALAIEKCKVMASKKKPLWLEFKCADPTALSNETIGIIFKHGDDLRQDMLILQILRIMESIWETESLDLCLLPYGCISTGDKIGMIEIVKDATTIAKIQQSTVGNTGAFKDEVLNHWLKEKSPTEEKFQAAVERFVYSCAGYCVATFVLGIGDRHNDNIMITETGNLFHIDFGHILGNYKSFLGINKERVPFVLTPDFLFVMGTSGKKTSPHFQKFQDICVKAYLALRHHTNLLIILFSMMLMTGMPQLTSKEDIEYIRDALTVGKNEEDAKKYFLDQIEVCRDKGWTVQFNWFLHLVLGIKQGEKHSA

Take `Cc1csc2nc(C(C)Nc3nc(N)nc4[nH]cnc34)c(-c3cccc(F)c3)c(=O)n12` (stereo not drawn) [Example 11, 7-{1-[(2-amino-9H-purin-6-yl)amino]ethyl}-6-(3-fluorophenyl)-3-methyl-5H-[1,3]thiazolo[3,2-a]pyrimidin-5-one]: the IC50 against PI3Kδ (p110δ/p85α) [1] was under 50 nM; at PI3Kγ, 100 to 500 nM; at PI3Kδ (p110δ/p85α) [2], under 50 nM.

Consider `Cc1csc2nc(C(C)Nc3nc(N)nc4[nH]cnc34)c(-c3ccccc3)c(=O)n12` (stereo not drawn) [Example 9, 7-{1-[(2-amino-9H-purin-6-yl)amino]ethyl}-3-methyl-6-phenyl-5H-[1,3]thiazolo[3,2-a]pyrimidin-5-one], for which the IC50 is under 50 nM on PI3Kδ (p110δ/p85α) [1], 50 to 100 nM on PI3Kγ and under 50 nM at PI3Kδ (p110δ/p85α) [2].

`Cc1csc2nc(C(C)Nc3nc(N)nc4[nH]cnc34)c(-c3cc(F)cc(F)c3)c(=O)n12` (stereo not drawn) [Example 13, 7-{1-[(2-amino-9H-purin-6-yl)amino]ethyl}-6-(3,5-difluorophenyl)-3-methyl-5H-[1,3]thiazolo[3,2-a]pyrimidin-5-one]: the IC50 is under 50 nM against PI3Kδ (p110δ/p85α) [1], 100 to 500 nM against PI3Kγ and under 50 nM against PI3Kδ (p110δ/p85α) [2].
